# Data reported in US20220016101A1 (ACADIA Pharmaceuticals Inc., priority 2018, published 2022).
# System: patients with MDD and an inadequate response to an SSRI or SNRI
# Assay: Massachusetts General Hospital Sexual Functioning Index (MGH-SFI), Study ACP-103-042
# Type: in vivo, human
# Source text: “Massachusetts General Hospital Sexual Functioning Index (MGH-SFI)” is described, for instance, in Labbate and Lare, 2001, Psychother Psychosom. 70(4):221-225. This is a patient facing questionnaire that quantifies sexual dysfunction into 5 functional domains (“interest in sex,” “sexual arousal,” “ability to achieve orgasm,” “ability to maintain erection” (males only), and “sexual satisfaction”). Patients rate each item using a 6-point scale ranging from 1 (good function) to 6 (poor function). High scores indicate poor sexual functioning. […] The determination of the subject's status and eligibility for randomization in Stage 2 was made in a double-blind manner. […] Sexual functioning was assessed using the Massachusetts General Hospital Sexual Functioning Index or MGH-SFI (Labbate and Lare, 2001, Psychother Psychosom. 70(4):221-225). This is a patient facing questionnaire that quantifies sexual dysfunction into 5 functional domains (“interest in sex,” “sexual arousal,” “ability to achieve orgasm,” “ability to maintain erection” [malesonly], and “sexual satisfaction”). Patients rate each item using a 6-point scale ranging from 1 (good function) to 6 (poor function). The time frame for this scale is the past month. This scale was administered at baseline and Week 5 in both stages of the study. High scores indicate poor sexual functioning. In ACP-103-042 the mean scores for MGH-SFI at Baseline was calculated over all 5 domains for males and the 4 domains for females. For MGH-SFI (follow-up version) at Study Weeks 5 and 10, the mean was calculated in the same way as MGH-SFI at Baseline. […] Tables 10-27 summarize the detailed data of MGH-SFI individual items of the overall study group (Tables 10-15), the subgroup of age of <=50 (Tables 16-21) and the subgroup of age of >50 (Table 21-26). In Tables 9-26, ANCOVA=analysis of covariance; OC=observed cases; LSM=least squares mean; CI=confidence interval; SD=standard deviation; SE=standard error. Stage 1: Baseline=Study Week 0, Week 5=Study Week 5; Stage 2: Baseline=Study Week 5, Week 5=Study Weeks 10. LSM from the stage-specific ANCOVA analysis with the change from baseline as the outcome, treatment group as a factor, and the corresponding Baseline value as a covariate. 2-sided p-value for treatment difference from the stage-specific ANCOVA analysis. An treatment effect size (Cohen's d) is calculated using the formula: Effect Size=Least Square mean difference between PIM and PBO/SD. The corresponding 95% confidence interval for an effect size is calculated based on the theoretical probability distribution of the effect size. […] Tables 10-15 and 28-38 summarize the detailed data of MGH-SFI individual items of the overall study group (Tables 10-15), the female subgroup (Tables 33-37) and the male subgroup (Table 38-43). An treatment effect size (Cohen's d) is calculated using the formula: Effect Size=Least Square mean difference between PIM and PBO/SD. The corresponding 95% confidence interval for an effect size is calculated based on the theoretical probability distribution of the effect size. In Tables 10-15 and 28-38, ANCOVA=analysis of covariance; OC=observed cases; LSM=least squares mean; CI=confidence interval; SD=standard deviation; SE=standard error. Stage 1: Baseline=Study Week 0, Week 5=Study Week 5; Stage 2: Baseline=Study Week 5, Week 5=Study Weeks 10. LSM from the stage-specific ANCOVA analysis with the change from baseline as the outcome, treatment group as a factor, and the corresponding Baseline value as a covariate. 2-sided p-value for treatment difference from the stage-specific ANCOVA analysis. An treatment effect size (Cohen's d) is calculated using the formula: Effect Size=Least Square mean difference between PIM and PBO/SD. The corresponding 95% confidence interval for an effect size is calculated based on the theoretical probability distribution of the effect size.
# [1] = Stage 2, Overall Study Group, 34 mg QD + SSRI/SNRI
# [2] = Stage 2, Subgroup of <=50 Years
# [3] = Stage 2, Subgroup of <=50 Years Old
# [4] = Stage 2, Subgroup of <=50 Years Old, 34 mg QD + SSRI/SNRI
# [5] = female subgroup, Stage 1 (Study Week 0 to 5), PIM 34 mg
# [6] = female subgroup, Stage 1 (Study Week 5), PIM 34 mg
# [7] = female subgroup, Stage 1, positive = pimavanserin better than placebo
# [8] = female subgroup, Stage 2 (Study Week 5 to 10), PIM 34 mg
# [9] = female subgroup, Stage 2 (Study Week 10), PIM 34 mg
# [10] = female subgroup, Stage 2, positive = pimavanserin better than placebo
smiles,measurement,setting,value
"CC(C)COc1ccc(CNC(=O)N(Cc2ccc(F)cc2)C2CCN(C)CC2)cc1 [pimavanserin, N-(4-Fluorophenylmethyl)-N-(1-methylpiperidin-4-yl)-N′-(4-(2-methylpropyloxy)phenylmethyl)carbamide]","MGH-SFI 05: Overall Sexual Satisfaction, Effect Size (Cohen's d)","Stage 2, Overall Study Group",0.404
same,"MGH-SFI 05: Overall Sexual Satisfaction, Week 5 Median","Stage 2, Overall Study Group",4.5
same,"MGH-SFI 06: Overall Improvement Since Last Medication Change, Effect Size (Cohen's d)","Stage 2, Overall Study Group",0.227
same,"MGH-SFI 06: Overall Improvement Since Last Medication Change, Week 5 Median","Stage 2, Overall Study Group",4.0
same,"MGH-SFI 01: Interest in Sex, Week 5 Mean (SE)",[1],4.1 (0.28)
same,"MGH-SFI 02: Ability to Get Sexually Aroused or Excited, Week 5 Mean (SE)",[1],4.2 (0.27)
same,"MGH-SFI 03: Ability to Achieve Orgasm, Week 5 Mean (SE)",[1],4.3 (0.32)
same,"MGH-SFI 04: (Men) Ability to Get and Maintain an Erection, Week 5 Mean (SE)",[1],3.1 (0.54)
same,"MGH-SFI 05: Overall Sexual Satisfaction, Week 5 Mean (SE)",[1],4.1 (0.33)
same,"MGH-SFI 06: Overall Improvement Since Last Medication Change, Week 5 Mean (SE)",[1],3.6 (0.25)
same,"MGH-SFI 01: Interest in Sex, Change from Baseline to Week 5 Mean (SE)",[2],−0.3 (0.21)
same,"MGH-SFI 01: Interest in Sex, Change from Baseline to Week 5 Median",[2],0.0
same,"MGH-SFI 01: Interest in Sex, Effect Size (Cohen's d)",[2],0.081
same,"MGH-SFI 01: Interest in Sex, Week 5 Median",[2],4.0
same,"MGH-SFI 02: Ability to Get Sexually Aroused or Excited, Change from Baseline to Week 5 Mean (SE)",[3],−0.3 (0.25)
same,"MGH-SFI 02: Ability to Get Sexually Aroused or Excited, Change from Baseline to Week 5 Median",[3],−1.0
same,"MGH-SFI 02: Ability to Get Sexually Aroused or Excited, Effect Size (Cohen's d)",[3],0.017
same,"MGH-SFI 02: Ability to Get Sexually Aroused or Excited, Week 5 Median",[3],4.0
same,"MGH-SFI 03: Ability to Achieve Orgasm, Change from Baseline to Week 5 Mean (SE)",[3],−0.3 (0.25)
same,"MGH-SFI 03: Ability to Achieve Orgasm, Change from Baseline to Week 5 Median",[3],0.0
same,"MGH-SFI 03: Ability to Achieve Orgasm, Effect Size (Cohen's d)",[3],0.449
same,"MGH-SFI 03: Ability to Achieve Orgasm, Week 5 Median",[3],4.0
same,"MGH-SFI 02: Ability to Get Sexually Aroused or Excited, Week 5 Mean (SE)",[4],4.1 (0.33)
same,"MGH-SFI 03: Ability to Achieve Orgasm, Week 5 Mean (SE)",[4],4.1 (0.40)
same,"MGH-SFI 01: Interest in Sex, Week 5 Mean (SE)","Stage 2, Subgroup of <=50 Years, 34 mg QD + SSRI/SNRI",3.9 (0.36)
same,"MGH-SFI Items effect sizes, mean change from baseline to Week 5 vs placebo",female patients,> 0.5
same,"MGH-SFI 01: Interest in Sex, Change from Baseline to Week 5 Mean (SE)",[5],−0.9 (0.21)
same,"MGH-SFI 01: Interest in Sex, Change from Baseline to Week 5 Median",[5],−1.0
same,"MGH-SFI 02: Ability to Get Sexually Aroused or Excited, Change from Baseline to Week 5 Mean (SE)",[5],−0.8 (0.17)
same,"MGH-SFI 02: Ability to Get Sexually Aroused or Excited, Change from Baseline to Week 5 Median",[5],−1.0
same,"MGH-SFI 03: Ability to Achieve Orgasm, Change from Baseline to Week 5 Mean (SE)",[5],−1.2 (0.27)
same,"MGH-SFI 03: Ability to Achieve Orgasm, Change from Baseline to Week 5 Median",[5],0.0
same,"MGH-SFI 05: Overall Sexual Satisfaction, Change from Baseline to Week 5 Mean (SE)",[5],−0.9 (0.26)
same,"MGH-SFI 05: Overall Sexual Satisfaction, Change from Baseline to Week 5 Median",[5],0.0
same,"MGH-SFI 01: Interest in Sex, Week 5 Mean (SE)",[6],3.7 (0.29)
same,"MGH-SFI 01: Interest in Sex, Week 5 Median",[6],4.0
same,"MGH-SFI 02: Ability to Get Sexually Aroused or Excited, Week 5 Mean (SE)",[6],3.7 (0.28)
same,"MGH-SFI 02: Ability to Get Sexually Aroused or Excited, Week 5 Median",[6],3.5
same,"MGH-SFI 03: Ability to Achieve Orgasm, Week 5 Mean (SE)",[6],3.8 (0.28)
same,"MGH-SFI 03: Ability to Achieve Orgasm, Week 5 Median",[6],4.0
same,"MGH-SFI 05: Overall Sexual Satisfaction, Week 5 Mean (SE)",[6],3.8 (0.29)
same,"MGH-SFI 05: Overall Sexual Satisfaction, Week 5 Median",[6],3.5
same,"MGH-SFI 06: Overall Improvement Since Last Medication Change, Week 5 Mean (SE)",[6],3.2 (0.17)
same,"MGH-SFI 06: Overall Improvement Since Last Medication Change, Week 5 Median",[6],4.0
same,"MGH-SFI 01: Interest in Sex, Effect Size (Cohen's d)",[7],0.561
same,"MGH-SFI 02: Ability to Get Sexually Aroused or Excited, Effect Size (Cohen's d)",[7],0.616
same,"MGH-SFI 03: Ability to Achieve Orgasm, Effect Size (Cohen's d)",[7],0.749
same,"MGH-SFI 05: Overall Sexual Satisfaction, Effect Size (Cohen's d)",[7],0.627
same,"MGH-SFI 06: Overall Improvement Since Last Medication Change, Effect Size (Cohen's d)",[7],0.634
same,"MGH-SFI 01: Interest in Sex, Change from Baseline to Week 5 Mean (SE)",[8],−0.3 (0.17)
same,"MGH-SFI 01: Interest in Sex, Change from Baseline to Week 5 Median",[8],0.0
same,"MGH-SFI 02: Ability to Get Sexually Aroused or Excited, Change from Baseline to Week 5 Mean (SE)",[8],−0.3 (0.20)
same,"MGH-SFI 02: Ability to Get Sexually Aroused or Excited, Change from Baseline to Week 5 Median",[8],0.0
same,"MGH-SFI 03: Ability to Achieve Orgasm, Change from Baseline to Week 5 Mean (SE)",[8],−0.3 (0.20)
same,"MGH-SFI 03: Ability to Achieve Orgasm, Change from Baseline to Week 5 Median",[8],0.0
same,"MGH-SFI 05: Overall Sexual Satisfaction, Change from Baseline to Week 5 Mean (SE)",[8],−0.4 (0.26)
same,"MGH-SFI 05: Overall Sexual Satisfaction, Change from Baseline to Week 5 Median",[8],0.0
same,"MGH-SFI 01: Interest in Sex, Week 5 Mean (SE)",[9],4.4 (0.34)
same,"MGH-SFI 01: Interest in Sex, Week 5 Median",[9],5.0
same,"MGH-SFI 02: Ability to Get Sexually Aroused or Excited, Week 5 Mean (SE)",[9],4.5 (0.32)
same,"MGH-SFI 02: Ability to Get Sexually Aroused or Excited, Week 5 Median",[9],5.0
same,"MGH-SFI 03: Ability to Achieve Orgasm, Week 5 Mean (SE)",[9],4.6 (0.38)
same,"MGH-SFI 03: Ability to Achieve Orgasm, Week 5 Median",[9],5.0
same,"MGH-SFI 05: Overall Sexual Satisfaction, Week 5 Mean (SE)",[9],4.6 (0.38)
same,"MGH-SFI 05: Overall Sexual Satisfaction, Week 5 Median",[9],5.0
same,"MGH-SFI 06: Overall Improvement Since Last Medication Change, Week 5 Mean (SE)",[9],3.6 (0.29)
same,"MGH-SFI 06: Overall Improvement Since Last Medication Change, Week 5 Median",[9],4.0
same,"MGH-SFI 01: Interest in Sex, Effect Size (Cohen's d)",[10],0.073
same,"MGH-SFI 02: Ability to Get Sexually Aroused or Excited, Effect Size (Cohen's d)",[10],−0.064
same,"MGH-SFI 03: Ability to Achieve Orgasm, Effect Size (Cohen's d)",[10],0.132
